These results are taken from patent US20230355625A1, “METHODS OF TREATMENT” (INTRA-CELLULAR THERAPIES, INC., priority 2019, published 2023).

The conditions of data set [1]: in vivo; cited from earlier work.
A further data set deals with animal models. Particulars: cited from earlier work.
The next data set concerns healthy humans. The following applies: cited from earlier work; for fear extinction learning: humans.
Data set [2] concerns healthy human individuals. The experiment in a line: BOLD-fMRI during a stop signal task. It counts as in vivo. How it is done: The Stop Signal task is a way to measure behavioral and neural responses to inhibitory processing.
Patients were again administered single oral doses of placebo, Compound 1 at 1 mg or 10 mg. Brain activity was then measured during BOLD-fMRI scanning at 3 Tesla. In this study, participants are presented with a visual and/or audio cue and two buttons. The subjects are instructed to press the left button as quickly as possible when an ‘X’ appears on a screen and the right button when an ‘O’ appears. Participants also are instructed not to press either button when they hear a tone, which constitute the Stop trials. There are two different kinds of Stop trials presented during the task, namely easy and hard trials. Easy trials consist of the tone cue being presented simulataneously with the visual ‘X’ or ‘O’ making it easier to suppress a response. Hard trials consist of the tone being presented after a brief delay, making it harder to process the tone and suppress a response.
This consistency provides confidence in the findings.

Data set [3] has as its system healthy human individuals. The experiment in a line: BOLD-fMRI during the extinction phase of a fear conditioning task. It counts as in vivo. The following applies: single oral doses of 1 mg or 10 mg vs placebo; FIG. 1. How it is done:
A randomized, double-blind, placebo-controlled, within-subjects study was carried out with healthy human individuals to determine whether the PDE1 inhibitors according to the present disclosure induce changes in blood oxygen level dependent functional magnetic resonance imaging (BOLD-fMRI) signals in the dorsal anterior insula (dAI) during the extinction phase of a fear conditioning task. To test these effects, Compound 1 was administered to healthy human patients. Compound 1 (ITI-214) is shown below:
The insula is a small brain region that is essential for the mind-body connection, where body sensations are translated into emotion. Anterior insula reactivity has been associated with anticipating significant events, and increased anterior insula activity has been associated with anxiety. Conditioning, including fear conditioning and extinction, is a brain activity during learning. […]
Patients were administered single oral doses of placebo, or doses of Compound 1 at 1 mg or 10 mg. Brain activity was then measured during BOLD-fMRI scanning at 3 Tesla. […] Region-of-interest (ROI) analyses for the dAI, IFG, and other prespecified regions were computed using linear mixed models in R. The brain's response is measured in each subject by fMRI scans, which is summarized in FIG. 1.

Another data set has as its system preclinical models. The experiment in a line: preclinical models of cognitive performance. It counts as in vivo.

As for `COC(=O)C(c1ccccc1)C1CCCCN1` (stereo not drawn) [methylphenidate], in data set [1], the “activation in the frontal gyrus during a stop signal task” value is “increase activation” and the “inhibitory performance during a stop signal task” value is on record as “improve inhibitory performance”. In the data set on animal models, the “extinction of contextual fear (cognitive function)” value is listed as “enhanced extinction of contextual fear”. The “effect on the bilateral anterior insula during a fear extinction task” value with healthy humans (healthy humans) is “attenuating effect”. Also, the fear extinction learning result with healthy humans is “enhancement of fear extinction learning”.

For the compound `NC(=O)C[S+]([O-])C(c1ccccc1)c1ccccc1` (stereo not drawn) [modafinil], in data set [1], the “activation in the frontal gyrus during a stop signal task” value is on record as “increase activation” and the “inhibitory performance during a stop signal task” value is “improve inhibitory performance”. For the same compound, the “extinction of contextual fear (cognitive function)” value with animal models is “enhanced extinction of contextual fear”. Also, in the data set on healthy humans, the fear extinction learning result is on record as “enhancement of fear extinction learning”.

With `CN1C(=O)c2c(nn(Cc3ccc(-c4cccc(F)n4)cc3)c2Nc2ccccc2)N2C1=N[C@@H]1CCC[C@@H]12` [Compound 1], the “activity in the dorsolateral prefrontal cortex during stop signal task” value in data set [2] (FIG. 3) is “increased activity”. Besides, in data set [2] (FIG. 4), the “activity in the dorsal anterior cingulate cortex during stop signal task” value is given as “increased activity”. In addition, in data set [2] (FIG. 5), the “activity in the anterior insula during stop signal task” value is “increased activity”. Further, the “activation in the frontal gyrus” value in data set [2] (human, 1 mg where stated) is reported as “increased activation”. Further, in data set [2] (single oral dose 1 mg, FIG. 2), the “activation in the inferior frontal gyrus during correctly inhibited Stop trials, easy trials (correcteasy)” value is on record as “significantly increased activation” and the “activation in the inferior frontal gyrus during correctly inhibited Stop trials, hard trials (correcthard)” value is listed as “significantly increased activation”. Also, the “insula activity (dorsal anterior insula BOLD-fMRI signal) during fear extinction” value in data set [3] is reported as “slightly attenuated”. Moreover, in the data set with preclinical models, the cognitive performance entry is given as “improved cognitive performance” and the psychomotor hyperactivity entry is given as “without psychomotor hyperactivity”.
